Assays:
[1] = cited from earlier work
sheep red blood cells = settings: cited from earlier work; for concentration causing hemolysis of sheep red blood cells: substantially pure saponin
[2] = in words; cited from earlier work
[3] = aqueous shelf life of QS-21 solution at 4° C. (t90); assay type: physicochemical
Description: Product stability is another concern for QS-21 containing compositions. The shelf life of a vaccine product is typically defined by the extent of time to reach a defined and acceptable low level of degradation (such as, the time to 10% degradation, also known as t90). Most commercial vaccine products have a shelf life of at least 18 to 24 months when stored in the refrigerator at 4° C. Adjuvants, which are essential components of vaccines, therefore must also have equally long shelf lives. However, the shelf life of a 50 μg/ml solution of QS-21 at pH 7.0 at 4° C. is reached in about 3 months. The reason for the short shelf life is because the ester bond of QS-21 is increasingly labile at increasing pH and because monomers of QS-21, as opposed to micelles, are subject to hydrolysis. The need to stabilize compositions of QS-21 adjuvant is significant.
This is representative of a typical clinical vaccine formulation containing QS-21 adjuvant (which consists of QS-21 at a concentration of 50-200 μg/ml in a-physiological pH buffer (pH 7.0-7.5)). […] Some improvement in stability, however, can be achieved by an increased concentration of the QS-21 product. […] But a concentrated QS-21 solution is not necessarily a practical method of administering a low dose of adjuvant. For example, administration of 25 μg from a 500 μg/ml solution would require the syringe withdrawal of 0.05 ml of dose. Additionally, some improved stability can be achieved by the use of a lower pH, i.e., at pH 6.0. However, a pH substantially lower than the physiological pH range may not be tolerated well or be compatible with the antigen.

Balb/c mice = test: adjuvant potency: anti-OVA IgG2a response of immunized Balb/c mice (EIA); assay type: in vivo
Description: FIGS. 1A and 1B show the effect of Polysorbate 40, Polysorbate 60, Polysorbate 80, and methyl-β-cyclodextrin on the immune response of Balb/c mice to OVA plus various doses of QS-21. Female mice (10/group, 8-10 weeks of age at the first immunization) were immunized subcutaneously with 5 μg of OVA and the indicated dose of QS-21 in either PBS alone or in 2 mg/ml excipient in PBS. A booster immunization was given by the same route at week 2. Sera was collected at week 4 for EIA analysis of the anti-OVA response. Mice were analyzed for OVA-specific IgG2a by a standard EIA analysis.

[4] = earlier clinical trials: pain after injection of QS-21 in simple buffer; assay type: in vivo, humans; settings: QS-21 in saline or PBS, some individuals
Source text: This pain, described by most individuals as a burning pain, may be a secondary reaction correlated with the lytic effect of the QS-21 adjuvant. Patient pain is likewise an objectionable property for a composition.

C57BL/6 mice = settings: antigen ovalbumin, cited from earlier work
[5] = tested on: New Zealand white rabbits; settings: cited from earlier work

| Substance | critical micellar concentration in phosphate buffered saline [1] | critical micellar concentration in water [1] | concentration causing hemolysis of sheep red blood cells (sheep red blood cells) [ng/mL] | immune adjuvant activity [2] | t90 (shelf life, time to 10% degradation) ([3]; 50 μg/ml QS-21, pH 6.0) [days] | t90 (shelf life, time to 10% degradation) ([3]; 50 μg/ml QS-21, pH 7.0, 4° C.) [days] | shelf life ([3]; 500 μg/ml QS-21, pH 7.0, 4° C.) [months] | t90 (shelf life, time to 10% degradation) ([3]; 500 μg/ml QS-21, pH 7.0, 4° C.) [days] | adjuvant activity (threshold dose) relative to PBS (Balb/c mice; 5 μg OVA s.c., boost week 2, sera week 4, 2 mg/ml Polysorbate 40, 60, 80 or methyl-β-cyclodextrin in PBS) | optimum adjuvant dose (Balb/c mice; QS-21 dose, OVA-specific IgG2a, Balb/c mice) [µg] | maximum level of antibody response (Balb/c mice; at optimum adjuvant dose, excipients versus PBS) | pain after injection [4] | critical micellar concentration ([1]; in PBS (Soltysik 1995)) | threshold dose for antibody (C57BL/6 mice; in PBS (Kensil 1993)) [µg] | threshold dose for CTL (C57BL/6 mice; in PBS (Newman 1992)) [µg] | concentration at which hemolysis occurs (sheep red blood cells; simple buffer such as saline or PBS (Kensil 1991)) [ng/mL] | creatine kinase (marker for muscle damage) ([5]; after injection with QS-21 in saline or PBS) | injection site histopathology ([5]; intramuscular QS-21/saline solutions, some animals (Kensil 1995)) |
| --- | --- | --- | --- | --- | --- | --- | --- | --- | --- | --- | --- | --- | --- | --- | --- | --- | --- | --- |
| QS-17 | ~0.03 % (w/v) | approximately 0.06 % (w/v) | ≥ 25000 | having immune adjuvant activity | – | – | – | – | – | – | – | – | – | – | – | – | – | – |
| QS-18 | ~0.02 % (w/v) | approximately 0.04 % (w/v) | ≥ 25000 | having immune adjuvant activity | – | – | – | – | – | – | – | – | – | – | – | – | – | – |
| QS-21 | ~0.02 % (w/v) | approximately 0.03 % (w/v) | ≥ 25000 | having immune adjuvant activity | 679 | 94 | 23.9 | 717 | active in all excipients within two fold of the threshold value determined in PBS | ≥ 10 | same maximum level of antibody response was reached | immediate, transient pain | approximately 50 μg/ml | 2.5 | 2.5 | 5000 to 7000 | increased | mild to moderate fibroblast damage or necrosis |

From patent US6645495B1, “Compositions of saponin adjuvants and excipients” (Antigenics, Inc., priority 1997, dated 2003)
